Results taken from US20260207535A1, “CRIBLAGE INHIBITEURS USP8” (COMMISSARIAT A L'ENERGIE ATOMIQUE ET AUX ENERGIES …, priority 2022, published 2026).

Legend:
AtT-20 cells = experiment: Cytotoxicity towards AtT-20 cells (PrestoBlue viability assay); details: for cytotoxicity on AtT-20 cells, in words (FIG. 6): 25 μM for 24 hours
Text: The AtT-20 cells viability was monitored in the conditions used to follow ACTH secretion. The viability of treated cells was concomitantly evaluated using a Cell Viability Reagent (monitoring of the cells' reducing capacity) (PrestoBlue® assay, Molecular Probes) with the aim to determine non-toxic doses of cell treatment.
After the collection of the supernatant sample for the ACTH assay in the previous step, cells were supplemented with the PrestoBlue™ cell viability reagent (Invitrogen™ A13261) at 10% final volume, and re-incubated at 37° C. for 30 minutes. Fluorescence was then read with a FLUOstar OPTIMA microplate reader.

AtT-20 pituitary cells = experiment: Inhibition of ACTH secretion in pituitary cells (ACTH EIA on supernatant); type: cell-based, mouse; details: for activity at 25 µM: read-out: ACTH secretion % of control (DMSO) at 25 μM
Protocol: ACTH release (percent comparison to DMSO control). Briefly, 12,500 AtT-20 cells per well were seeded in a 96-well plate. After 24 hours exposure, cells were treated with each compound at the indicated final concentration, or with DMSO alone (control condition compound solvent) or with corticotropin releasing factor (indicated CRF) at 100 nM. After a 24-hour treatment, cell supernatants were collected and stored at −80° C., prior to quantification of ACTH concentration using ACTH chemiluminescent EIA kit (Phoenix Pharmaceuticals, Inc.). Determination of ACTH concentrations was based on the best-fitting ACTH standard curve and P values were calculated using one-way ANOVA, using Prism 9 software (GraphPad Software, Inc.) ns (P=0.12). **P<0.002. ***P<0.001. All compounds were tested in technical triplicates. One representative experiment out of three is presented.
FIG. 4: illustrates a decrease of ACTH secretion by AtT-20 cells after 24-hour treatment of halogenated salicylanilides. 12,500 AtT-20 cells per well were seeded in a 96-well plate. […] After a 24-hour treatment, cell supernatants were collected and stored at −80° C., prior to quantification of ACTH concentration using ACTH chemiluminescent EIA kit (Phoenix Pharmaceuticals, Inc.). Determination of ACTH concentrations was based on the best-fitting ACTH standard curve and P values were calculated by ordinary one-way ANOVA using Prism 6 software (GraphPad Software, Inc), ns (not significant), **** P<0.0001. Compounds were tested in technical triplicates.
12,500 AtT-20 cells per well were seeded in a 96-well plate. After 24 hours, cells were treated with compounds (corresponding chemical formula are indicated in Table 1) at 25 μM final concentration, or with DMSO alone (compound solvent). After a 24-hour treatment, cell supernatants were collected and stored at −80° C., prior to quantification of ACTH concentration using ACTH chemiluminescent EIA kit (Phoenix Pharmaceuticals, Inc.). Determination of ACTH concentrations was based on the best-fitting ACTH standard curve and P values were calculated by ordinary one-way ANOVA using Prism 6 software (GraphPad Software, Inc), ns (not significant), *P<0.05, ***P<0,0001. Compounds were tested in technical triplicates.
Mouse AtT-20 pituitary cell line were used as a powerful and well-characterized model to monitor ACTH secretion using an enzyme immunoassay (EIA) kit.
Mouse AtT-20 cells were obtained from the American Type Culture Collection and maintained on DMEM containing 10% fetal bovine serum, 100 μg/mL streptomycin and 100 U/mL penicillin at 37° C. with 5% CO2 after recovery from long-term storage on liquid nitrogen-vapor phase.
The ACTH secretion levels of AtT-20 cell culture was monitored on the supernatant of AtT-20 cells treated or not by increasing doses of compounds belonging to the family of halogenated salicylanilides chemicals.
1.25×10^4 AtT20 cells were seeded on polylysine-coated 96-well culture vessels on 150 μL of complete medium. After 24 hours, cells were treated with stock compounds to a final DMSO concentration of 0.5%. After 24 hours of treatment, cell culture supernatant was collected, cleared for 10 min at 1000×g at 4° C., diluted or not in assay buffer (Phoenix Peptide ACTH EIA EK-001-21) and frozen at −80° C. for subsequent processing according to the instructions of the kit's manufacturer.

[1] = biological target: T1, Full length USP8 (USP8FL) (Homo sapiens, UniProt P40818); experiment: USP8FL (full length USP8) enzymatic inhibition, Ub-Rhodamine 110 hydrolysis in L-cysteine buffer; type: biochemical; details: USP8 FL 75 nM, Ub-Rho 0.1 μM, L-cysteine buffer; read-out: USP8FL inhbition IC50 [μM] (CI: Confidence Interval)
T1 construct: purchased BostonBiochem E-520
T1 sequence (P40818 1-1118): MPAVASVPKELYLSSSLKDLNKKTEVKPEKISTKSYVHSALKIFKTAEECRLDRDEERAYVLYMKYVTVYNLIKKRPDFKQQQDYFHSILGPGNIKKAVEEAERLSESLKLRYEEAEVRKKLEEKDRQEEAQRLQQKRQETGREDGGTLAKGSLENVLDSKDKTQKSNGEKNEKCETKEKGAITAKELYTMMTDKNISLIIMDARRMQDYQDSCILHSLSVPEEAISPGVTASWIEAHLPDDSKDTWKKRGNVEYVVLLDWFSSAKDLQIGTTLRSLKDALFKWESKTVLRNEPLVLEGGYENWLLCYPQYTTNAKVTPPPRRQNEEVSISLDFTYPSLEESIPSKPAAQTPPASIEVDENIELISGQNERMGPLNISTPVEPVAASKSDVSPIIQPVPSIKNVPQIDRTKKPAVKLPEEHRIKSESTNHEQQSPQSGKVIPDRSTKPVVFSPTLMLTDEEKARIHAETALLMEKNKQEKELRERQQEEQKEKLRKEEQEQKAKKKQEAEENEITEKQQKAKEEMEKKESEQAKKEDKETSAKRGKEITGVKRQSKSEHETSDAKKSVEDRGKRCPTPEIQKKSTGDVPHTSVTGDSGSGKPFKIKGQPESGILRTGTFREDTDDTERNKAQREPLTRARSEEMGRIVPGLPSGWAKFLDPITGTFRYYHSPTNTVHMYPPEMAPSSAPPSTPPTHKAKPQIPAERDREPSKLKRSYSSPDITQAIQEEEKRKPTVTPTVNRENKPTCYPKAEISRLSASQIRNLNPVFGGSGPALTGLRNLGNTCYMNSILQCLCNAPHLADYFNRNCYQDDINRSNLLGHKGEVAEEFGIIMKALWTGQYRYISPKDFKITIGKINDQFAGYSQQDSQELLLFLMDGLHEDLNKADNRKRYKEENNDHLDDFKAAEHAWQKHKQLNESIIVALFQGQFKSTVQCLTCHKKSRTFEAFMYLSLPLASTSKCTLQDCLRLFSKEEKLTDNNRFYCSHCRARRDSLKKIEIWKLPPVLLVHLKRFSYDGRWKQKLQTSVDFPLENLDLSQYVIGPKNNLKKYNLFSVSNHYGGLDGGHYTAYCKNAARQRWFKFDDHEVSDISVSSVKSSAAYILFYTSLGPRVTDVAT
Protocol: USP8 FL (USP8 Full Length) was incubated at a concentration of 75 nM in the presence of Ub-Rho (UBIQUIGENT ref. 60-0117-050) at a final concentration of 0.1 μM, in conditions ensuring linearity of enzyme activity throughout the assay in a specific buffer. Compounds were added to the reaction mix at different doses just before the substrate. The enzymatic reaction kinetics were monitored by measuring fluorescence elicited by the hydrolysis of Ub-Rho over 30 min.
In this setup, an in-house purified catalytic domain of USP8 (USP8CD) was used at a concentration of 80 nM in the presence of the artificial substrate Ubiquitin-Rhodamine 110 (Ub-Rho) (ref: 60-0117-050 Ubiquigent) at a final concentration of 0.1 μM, in conditions ensuring linearity of enzyme activity throughout the assay incubation time. Enzymatic assay was performed in a Tris HCl buffer (40 mM Tris HCl pH 7.4, Ovalbumine 0.5 mg/ml, Cysteine HCl 5.5 mM). Compounds to be tested were added to the reaction mix and incubated with enzyme for 20 min, before the substrate. The enzymatic reaction kinetics were monitored by measuring fluorescence elicited by the hydrolysis of the peptidyl Ub-Rho over 30 minutes. The negative control was the solvent DMSO at 1%.
Full length USP8 (USPBFL) (BostonBiochem ref. E-520) were used at a concentration of 75 nM in the presence of a ubiquitin substrate, i.e., the Ub-Rhodamine 110 (Ub-Rho) (Ubiquigent ref. 60-0117-050) at a final concentration of 0.1 μM. Enzymatic assays were performed as described for USP8-CD except that USP-FL was used at a concentration of 75 nM. The compounds were used at a final concentration of 0.1, 1, 5, 10, 50 and 100 μM in DMSO 0.5%. The USP8 catalytic activity was monitored both before adding the substrate (TO) and after twenty minutes of incubation at room temperature (Final Time TF). The enzymatic reaction kinetics were monitored by measuring fluorescence elicited by the hydrolysis of the Ub-Rho bound over 30 minutes.

[2] = Mus musculus, AtT20, 24-hour treatment, AtT-20 supernatant

Compound	AtT-20 cell viability (PrestoBlue assay) % of control (DMSO) at 25 μM Mean (SD) (AtT-20 cells; 24-hour exposure)	inhibition of ACTH at 25 μM, in words (FIG. 4, FIG. 5) (AtT-20 pituitary cells; 24-hour treatment)	activity at 25 µM (AtT-20 pituitary cells; [2])	IC50 [1]	further results
O=C(Nc1ccc(Cl)cc1)c1cc(I)cc(I)c1O [Amb1935028]	58.81 (34.11) %	significant inhibition	32%	11.9 µM	cytotoxicity on AtT-20 cells, in words (FIG. 6) (AtT-20 cells): partially cytotoxic
Cc1ccc(C(=O)c2cc(NC(=O)c3cc(I)cc(I)c3O)ccc2Cl)cc1 [Amb4103735]	109.4 (18.18) %	significant inhibition	58%	3.41 µM	
O=C(Nc1cc(Cl)ccc1Cl)c1cc(I)cc(I)c1O [Amb8477378]	95.72 (11.42) %	significant inhibition	41%	13 µM	
Cc1ccc(NC(=O)c2cc(I)cc(I)c2O)cc1 [Amb8477380]	93.51 (11.59) %	significant inhibition	66%	14.6 µM	
O=C(Nc1cc(Cl)cc(Cl)c1)c1cc(I)cc(I)c1O [Amb8477462]	67.96 (17.52) %	significant inhibition	31%	8.98 µM	
O=C(Nc1ccc(Cl)cc1Cl)c1cc(I)cc(I)c1O [Amb8487151]	89.58 (10.11) %	significant inhibition	44%	4.34 µM	
CC(=O)Oc1c(I)cc(I)cc1C(=O)Nc1ccc(Cl)cc1 [Clioxanide, reference compound]	94.21 (12.30) %	significant inhibition	57%	33.2 µM	
O=C(Nc1ccc([N+](=O)[O-])cc1Cl)c1cc(Cl)ccc1O [Niclosamide, reference compound]		significant inhibition		61 µM	toxicity in AtT-20 cells, in words (AtT-20 cells; 0.5 μM): no significant toxicity; toxicity in AtT-20 cells, in words (AtT-20 cells; 1.0 μM): no significant toxicity; AtT-20 cell viability (PrestoBlue assay) % of control (DMSO) (at 27 μM) Mean (SD) (AtT-20 cells; 27 μM, 24-hour exposure): 50% (12,40) (at 27 μM); dose-dependent viability assay, in words (FIG. 7) (AtT-20 cells; AtT-20 cells, 24-hour exposure, several doses): considerable effects on viability upon higher doses; reduction of ACTH secretion levels (AtT-20 pituitary cells; 0.5 μM): 27%; reduction of ACTH secretion levels (AtT-20 pituitary cells; 1.0 μM): 41%; activity at 27 µM (AtT-20 pituitary cells; Mus musculus, AtT20, 27 μM, 24-hour treatment, AtT-20 supernatant, read-out: ACTH secretion % of control (DMSO) (at 27 μM)): 41%; dose-dependent inhibition of ACTH (FIG. 3) (AtT-20 pituitary cells; increasing concentrations, 24-hour treatment): significant dose-dependent inhibition
Cc1ccc(NC(=O)c2cc(Cl)ccc2O)cc1 [OSSL-122817]		ineffective	118%		
O=C(Nc1ccc(Oc2ccc(Cl)cc2)c(Cl)c1)c1cc(I)cc(I)c1O [Rafoxanide, reference compound]		significant inhibition			cytotoxicity on AtT-20 cells, in words (FIG. 6) (AtT-20 cells): partially cytotoxic; AtT-20 cell viability (PrestoBlue assay) % of control (DMSO) at 25 μM Mean (SD) (AtT-20 cells; 24-hour exposure, listed as Rafoxanide Amb2704313): 39.30 (6.852) %; AtT-20 cell viability (PrestoBlue assay) % of control (DMSO) at 25 μM Mean (SD) (AtT-20 cells; 24-hour exposure, listed as Rafoxanide MCE HY-17598): 56.15 (3.536) %; ACTH secretion % of control (DMSO) at 25 μM (AtT-20 pituitary cells; 24-hour treatment, AtT-20 supernatant, listed as Rafoxanide Amb2704313, 25 µM): 33%; ACTH secretion % of control (DMSO) at 25 μM (AtT-20 pituitary cells; 24-hour treatment, AtT-20 supernatant, listed as Rafoxanide MCE HY-17598, 25 µM): 57%
